Reference: ChEMBL document CHEMBL4428125, “8-Substituted 1,3-dimethyltetrahydropyrazino[2,1-f]purinediones: Water-soluble adenosine receptor antagonists and monoamine oxidase B inhibitors” (Bioorg Med Chem, 2016)
pIC50, pKi: −log10 of the molar value. Converted amounts (≈) assume the structure as drawn. Blank lines part the entries; values can stand above or below the compound they belong to. The source made the active and inactive calls. No cut-off for these calls is given here.

Legend:
[1] = target: Adenosine receptor A2a (Rattus norvegicus) (UniProt P30543); experiment: Displacement of [3H]MSX from A2A receptor in rat brain striatum membranes at 1 uM measured after 30 mins by liquid scintillation counting method relative to control; format: cell membranes
Adenosine receptor A1 [2] = target: T1, Adenosine receptor A1 (Rattus norvegicus, UniProt P25099); experiment: Displacement of [3H]CCPA from A1 receptor in rat brain cortex membranes by liquid scintillation counting method; format: cell membranes
T1 sequence (P25099 whole entry): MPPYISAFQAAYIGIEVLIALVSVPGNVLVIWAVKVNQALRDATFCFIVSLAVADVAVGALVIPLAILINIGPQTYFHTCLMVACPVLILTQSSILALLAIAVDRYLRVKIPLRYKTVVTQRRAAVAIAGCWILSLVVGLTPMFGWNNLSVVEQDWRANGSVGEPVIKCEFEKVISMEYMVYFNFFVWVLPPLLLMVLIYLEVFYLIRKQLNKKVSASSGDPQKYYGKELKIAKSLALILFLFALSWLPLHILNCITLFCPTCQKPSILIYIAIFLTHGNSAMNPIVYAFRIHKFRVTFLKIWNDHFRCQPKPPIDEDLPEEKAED

Adenosine receptor A2a [3] = target: Adenosine receptor A2a (Rattus norvegicus, UniProt P30543); experiment: Displacement of [3H]MSX from A2A receptor in rat brain striatum membranes measured after 30 mins by liquid scintillation counting method; format: cell membranes
[4] = target: T2, Adenosine receptor A1 (Rattus norvegicus) (UniProt P25099); experiment: Displacement of [3H]CCPA from A1 receptor in rat brain cortex membranes at 1.5 uM by liquid scintillation counting method; format: cell membranes
T2 sequence (whole entry): T1 sequence (P25099 whole entry)

[5] = target: T3, Adenosine receptor A2b (Homo sapiens) (UniProt P29275); experiment: Displacement of [3H]PSB-603 from human A2B receptor expressed in CHO cell membrane at […] relative to control; format: cell membranes
T3 sequence (whole entry): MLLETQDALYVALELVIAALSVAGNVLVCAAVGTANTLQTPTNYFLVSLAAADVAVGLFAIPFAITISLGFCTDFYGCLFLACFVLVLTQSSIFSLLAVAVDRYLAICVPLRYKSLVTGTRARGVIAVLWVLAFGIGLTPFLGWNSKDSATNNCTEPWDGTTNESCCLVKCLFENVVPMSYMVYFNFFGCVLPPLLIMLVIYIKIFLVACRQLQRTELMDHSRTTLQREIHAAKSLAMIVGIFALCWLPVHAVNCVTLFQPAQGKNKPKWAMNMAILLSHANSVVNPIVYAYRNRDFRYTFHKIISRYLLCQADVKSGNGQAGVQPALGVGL

[6] = target: T4, Amine oxidase [flavin-containing] B (Homo sapiens, UniProt P27338); experiment: Inhibition of recombinant human MAO-B expressed in baculovirus infected BTI insect cells at 10 uM preincubated for 30 mins followed by addition of p-tyramine as substrate measured over 45 mins by Amplex Red MAO assay relative to control; settings: 0.75 h
T4 sequence (P27338 whole entry): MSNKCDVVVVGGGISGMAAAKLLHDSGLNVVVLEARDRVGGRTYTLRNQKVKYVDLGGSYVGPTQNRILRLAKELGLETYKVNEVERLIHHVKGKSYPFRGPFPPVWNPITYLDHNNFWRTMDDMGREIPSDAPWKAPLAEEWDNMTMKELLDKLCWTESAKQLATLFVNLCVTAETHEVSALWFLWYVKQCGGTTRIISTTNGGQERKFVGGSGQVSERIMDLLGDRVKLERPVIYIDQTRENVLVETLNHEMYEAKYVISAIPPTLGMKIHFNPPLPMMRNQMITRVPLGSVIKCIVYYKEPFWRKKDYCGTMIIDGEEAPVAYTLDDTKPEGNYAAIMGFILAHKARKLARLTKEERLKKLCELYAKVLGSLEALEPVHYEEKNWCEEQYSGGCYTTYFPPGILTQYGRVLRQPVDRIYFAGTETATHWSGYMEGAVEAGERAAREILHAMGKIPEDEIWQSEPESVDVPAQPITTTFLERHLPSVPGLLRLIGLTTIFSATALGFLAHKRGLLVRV

Adenosine receptor A3 = target: T5, Adenosine receptor A3 (Homo sapiens, UniProt P0DMS8); experiment: Displacement of [3H]PSB-11 from human A3 receptor expressed in CHO cell membrane by liquid scintillation counting method relative to control; format: cell membranes
T5 sequence (P0DMS8 whole entry): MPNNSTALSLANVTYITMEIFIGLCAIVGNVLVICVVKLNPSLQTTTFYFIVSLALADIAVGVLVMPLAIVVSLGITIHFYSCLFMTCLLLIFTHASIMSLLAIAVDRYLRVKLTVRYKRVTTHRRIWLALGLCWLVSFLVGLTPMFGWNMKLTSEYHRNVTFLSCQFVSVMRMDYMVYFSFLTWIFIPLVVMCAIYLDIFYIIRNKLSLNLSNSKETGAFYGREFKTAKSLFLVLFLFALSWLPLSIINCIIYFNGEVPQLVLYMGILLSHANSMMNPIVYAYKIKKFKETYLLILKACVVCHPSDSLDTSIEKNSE

[7] = target: T4, Amine oxidase [flavin-containing] B; experiment: Inhibition of recombinant human MAO-B expressed in baculovirus infected BTI insect cells preincubated for 30 mins followed by addition of p-tyramine as substrate measured over 45 mins by Amplex Red MAO assay
Homo sapiens = species on record: Homo sapiens; experiment: Selectivity ratio, ratio of Ki for human A2A receptor to Ki for human A1 receptor
[8] = target: T6, Adenosine receptor A1 (Homo sapiens) (UniProt P30542); experiment: Agonist activity at recombinant human A1 receptor expressed in CHO cells assessed as inhibition of forskolin-induced cAMP accumulation at 1 uM preincubated for 20 mins prior to forskolin-stimulation measure after 5 mins by liquid scintillation counting method; format: functional, cell-based
T6 sequence (whole entry): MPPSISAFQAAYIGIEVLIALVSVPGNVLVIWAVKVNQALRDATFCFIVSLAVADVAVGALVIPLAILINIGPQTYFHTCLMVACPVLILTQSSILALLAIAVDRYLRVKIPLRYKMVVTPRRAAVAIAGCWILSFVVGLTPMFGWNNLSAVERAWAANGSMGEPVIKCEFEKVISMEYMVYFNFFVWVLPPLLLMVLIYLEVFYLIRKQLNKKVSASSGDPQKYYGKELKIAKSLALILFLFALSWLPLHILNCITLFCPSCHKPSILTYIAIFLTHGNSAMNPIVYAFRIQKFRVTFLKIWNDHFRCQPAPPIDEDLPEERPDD

Adenosine receptor A2b = target: T7, Adenosine receptor A2b (Homo sapiens, UniProt P29275); experiment: Displacement of [3H]PSB-603 from human A2B receptor expressed in CHO cell membrane; format: cell membranes
T7 sequence (P29275 whole entry): T3 sequence (whole entry)

[9] = target: T3, Adenosine receptor A2b (Homo sapiens); experiment: Displacement of [3H]PSB-603 from human A2B receptor expressed in CHO cell membrane at 1 uM relative to control; format: cell membranes
[10] = Thermodynamic solubility of the compound at pH 7.4; format: physicochemical; settings: buffer, read-out: Therm_solubility
Adenosine receptor A2a [11] = target: T8, Adenosine receptor A2a (Homo sapiens, UniProt P29274); experiment: Displacement of [3H]MSX from human A2A receptor measured after 30 mins by liquid scintillation counting method
[12] = target: T9, Adenosine receptor A3 (Homo sapiens) (UniProt P0DMS8); experiment: Displacement of [3H]PSB-11 from human A3 receptor expressed in CHO cell membrane at 10 uM by liquid scintillation counting method relative to control relative to control; format: cell membranes
T9 sequence (whole entry): T5 sequence (P0DMS8 whole entry)

[13] = target: T6, Adenosine receptor A1 (Homo sapiens); experiment: Agonist activity at recombinant human A1 receptor expressed in CHO cells assessed as inhibition of forskolin-induced cAMP accumulation at 10 uM preincubated for 20 mins prior to forskolin-stimulation measure after 5 mins by liquid scintillation counting method; format: functional, cell-based
[14] = target: T10, Amine oxidase [flavin-containing] A (Homo sapiens, UniProt P21397); experiment: Inhibition of recombinant human MAO-A expressed in baculovirus infected BTI insect cells preincubated for 30 mins followed by addition of p-tyramine as substrate measured over 45 mins by Amplex Red MAO assay
T10 sequence (P21397 whole entry): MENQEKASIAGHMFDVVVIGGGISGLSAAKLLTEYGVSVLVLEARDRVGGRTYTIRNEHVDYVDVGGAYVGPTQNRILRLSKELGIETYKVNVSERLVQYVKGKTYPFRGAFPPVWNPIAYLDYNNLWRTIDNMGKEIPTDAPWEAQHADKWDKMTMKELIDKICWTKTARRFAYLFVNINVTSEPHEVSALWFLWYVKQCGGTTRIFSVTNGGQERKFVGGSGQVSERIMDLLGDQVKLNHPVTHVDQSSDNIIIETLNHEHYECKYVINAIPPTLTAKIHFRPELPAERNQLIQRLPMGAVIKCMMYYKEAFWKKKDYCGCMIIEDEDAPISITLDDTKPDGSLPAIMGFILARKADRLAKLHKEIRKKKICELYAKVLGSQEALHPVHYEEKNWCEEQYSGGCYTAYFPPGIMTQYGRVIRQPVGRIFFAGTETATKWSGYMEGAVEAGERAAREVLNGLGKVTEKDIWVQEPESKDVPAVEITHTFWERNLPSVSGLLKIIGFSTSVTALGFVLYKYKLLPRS

Adenosine receptor A2a [15] = target: T8, Adenosine receptor A2a; experiment: Agonist activity at recombinant human A2A receptor expressed in CHO cells assessed as increase in forskolin-induced cAMP level at 1 uM preincubated for 20 mins prior to forskolin-stimulation measure after 5 mins by liquid scintillation counting method; format: functional, cell-based
[16] = target: T10, Amine oxidase [flavin-containing] A; experiment: Inhibition of recombinant human MAO-A expressed in baculovirus infected BTI insect cells at 10 uM preincubated for 30 mins followed by addition of p-tyramine as substrate measured over 45 mins by Amplex Red MAO assay relative to control; settings: 0.75 h
Adenosine receptor A2a [17] = target: T8, Adenosine receptor A2a; experiment: Agonist activity at recombinant human A2A receptor expressed in CHO cells assessed as increase in forskolin-induced cAMP level at 10 uM preincubated for 20 mins prior to forskolin-stimulation measure after 5 mins by liquid scintillation counting method; format: functional, cell-based
Adenosine receptor A1 [18] = target: T11, Adenosine receptor A1 (Homo sapiens, UniProt P30542); experiment: Displacement of [3H]CCPA from human A1 receptor expressed in CHO cell membrane by liquid scintillation counting method; format: cell membranes
T11 sequence (P30542 whole entry): T6 sequence (whole entry)

T8 sequence (P29274 whole entry): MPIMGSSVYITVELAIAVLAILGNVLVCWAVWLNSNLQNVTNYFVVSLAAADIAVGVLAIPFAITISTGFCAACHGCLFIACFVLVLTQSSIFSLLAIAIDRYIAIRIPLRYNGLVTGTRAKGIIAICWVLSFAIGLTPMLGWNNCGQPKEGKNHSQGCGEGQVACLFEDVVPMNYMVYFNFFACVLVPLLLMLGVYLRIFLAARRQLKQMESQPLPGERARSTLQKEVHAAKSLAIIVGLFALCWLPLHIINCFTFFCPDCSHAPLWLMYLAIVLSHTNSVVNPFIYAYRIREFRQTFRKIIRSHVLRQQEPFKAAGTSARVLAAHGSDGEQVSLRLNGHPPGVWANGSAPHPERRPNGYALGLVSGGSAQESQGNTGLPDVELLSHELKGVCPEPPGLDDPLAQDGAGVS
Sequence of Adenosine receptor A2a (Rattus norvegicus, UniProt P30543) (P30543 whole entry): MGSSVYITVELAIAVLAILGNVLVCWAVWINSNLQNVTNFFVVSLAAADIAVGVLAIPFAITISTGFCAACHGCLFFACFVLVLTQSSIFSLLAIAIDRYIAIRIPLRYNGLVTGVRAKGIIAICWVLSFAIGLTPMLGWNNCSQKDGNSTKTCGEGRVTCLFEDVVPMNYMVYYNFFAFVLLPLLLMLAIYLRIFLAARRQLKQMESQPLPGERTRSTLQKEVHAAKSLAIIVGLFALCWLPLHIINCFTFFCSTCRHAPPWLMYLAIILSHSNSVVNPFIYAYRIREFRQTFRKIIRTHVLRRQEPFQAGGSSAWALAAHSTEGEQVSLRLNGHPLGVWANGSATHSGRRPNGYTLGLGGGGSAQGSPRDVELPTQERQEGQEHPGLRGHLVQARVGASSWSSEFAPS
Sequence of Adenosine receptor A2a (Rattus norvegicus) (P30543 whole entry): as above

Activity [1]: 5% | pKi (Adenosine receptor A1 [2]): < 5.82 | pKi (Adenosine receptor A2a [3]): < 6.00 | Activity [4]: 21% | inhibition [5]: 18% | inhibition at 10 µM [6]: 39% | pKi (Adenosine receptor A3): 5.06 | pIC50 [7]: < 5.00
Compound: Cn1c(=O)c2c(nc3n2CCN(Cc2nocc2-c2ccccc2)C3)n(C)c1=O

Ratio Ki (Homo sapiens): 4 | Activity [8]: inactive | pKi (Adenosine receptor A2b): < 6.00 | Activity [9]: 7% | solubility thermodynamic [10]: 4 µg/mL (≈ 10.3 µM) | pKi (Adenosine receptor A1 [2]): 6.45 | pKi (Adenosine receptor A2a [11]): 6.64 | pKi (Adenosine receptor A2a [3]): 6.50 | Activity [12]: 34% | inhibition at 10 µM [6]: 44% | Activity [13]: inactive | pIC50 [14]: < 5.00 | Activity (Adenosine receptor A2a [15]): inactive | pKi (Adenosine receptor A3): < 5.00 | inhibition at 10 µM [16]: 12% | pIC50 [7]: < 5.00 | Activity (Adenosine receptor A2a [17]): inactive | pKi (Adenosine receptor A1 [18]): 7.18
Compound: Cn1c(=O)c2c(nc3n2CCN(CCCc2ccc(Cl)cc2)C3)n(C)c1=O
